# Assay results: PubChem BioAssay (NCI)
#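 Cultured in 96-well plates, cells were exposed to test compound for 48 hours across five concentrations. Definition used: TGI = concentration required for complete inhibition of growth.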
# What was measured:
# Test in all cases: DTP human tumour cell line panel, 48 h
# UACC-62 melanoma = tested on: UACC-62 melanoma
# MALME-3M melanoma = tested on: MALME-3M melanoma
# PC-3 prostate = tested on: PC-3 prostate
# K-562 leukemia = tested on: K-562 leukemia
# RXF 393 renal = tested on: RXF 393 renal
# CAKI-1 renal = tested on: CAKI-1 renal
# OVCAR-3 ovarian = tested on: OVCAR-3 ovarian
# IGROV1 ovarian = tested on: IGROV1 ovarian
# OVCAR-8 ovarian = tested on: OVCAR-8 ovarian
# U251 CNS = tested on: U251 CNS
# HOP-92 NSCLC = tested on: HOP-92 NSCLC
# SK-OV-3 ovarian = tested on: SK-OV-3 ovarian
# NCI-H522 lung = tested on: NCI-H522 lung
# EKVX NSCLC = tested on: EKVX NSCLC
# T-47D breast = tested on: T-47D breast
# A549 NSCLC = tested on: A549 NSCLC
# TK-10 renal = tested on: TK-10 renal
# MCF7 breast = tested on: MCF7 breast
# SK-MEL-28 melanoma = tested on: SK-MEL-28 melanoma
# NCI-H226 lung = tested on: NCI-H226 lung
# UACC-257 melanoma = tested on: UACC-257 melanoma
# ACHN renal = tested on: ACHN renal
# COLO 205 colon = tested on: COLO 205 colon
# UO-31 renal = tested on: UO-31 renal
# HL-60(TB) leukemia = tested on: HL-60(TB) leukemia
# MOLT-4 leukemia = tested on: MOLT-4 leukemia
# CCRF-CEM leukemia = tested on: CCRF-CEM leukemia
# A498 renal = tested on: A498 renal
# MDA-MB-231 breast = tested on: MDA-MB-231 breast
# HS 578T breast = tested on: HS 578T breast
# SR leukemia = tested on: SR leukemia
# SF-539 CNS = tested on: SF-539 CNS
# HT29 colon = tested on: HT29 colon
# LOX IMVI melanoma = tested on: LOX IMVI melanoma
# SN12C renal = tested on: SN12C renal
# NCI/ADR-RES ovarian = tested on: NCI/ADR-RES ovarian
# KM12 colon = tested on: KM12 colon
# SF-268 CNS = tested on: SF-268 CNS
# SNB-19 CNS = tested on: SNB-19 CNS
# 786-0 renal = tested on: 786-0 renal
# OVCAR-4 ovarian = tested on: OVCAR-4 ovarian
# HCC-2998 colon = tested on: HCC-2998 colon
# HOP-62 NSCLC = tested on: HOP-62 NSCLC
# OVCAR-5 ovarian = tested on: OVCAR-5 ovarian
# NCI-H23 lung = tested on: NCI-H23 lung
# RPMI-8226 leukemia = tested on: RPMI-8226 leukemia
# BT-549 breast = tested on: BT-549 breast
# SNB-75 CNS = tested on: SNB-75 CNS
# MDA-N = tested on: MDA-N
# DU-145 prostate = tested on: DU-145 prostate
# NCI-H460 lung = tested on: NCI-H460 lung
# HCT-15 colon = tested on: HCT-15 colon
# M14 melanoma = tested on: M14 melanoma
# SW-620 colon = tested on: SW-620 colon
# SK-MEL-2 melanoma = tested on: SK-MEL-2 melanoma
# SF-295 CNS = tested on: SF-295 CNS
# HCT-116 colon = tested on: HCT-116 colon
# MDA-MB-435 = tested on: MDA-MB-435
# SK-MEL-5 melanoma = tested on: SK-MEL-5 melanoma
structure (smiles),measurement,setting,value
C/C(=N\NC(=S)NCCNC(=S)N/N=C(\C)c1ccccn1)c1ccccn1,TGI,UACC-62 melanoma,11.7 µM
same,TGI,MALME-3M melanoma,> 78.8 µM
same,TGI,PC-3 prostate,> 100 µM
same,TGI,K-562 leukemia,> 100 µM
same,TGI,RXF 393 renal,> 100 µM
same,TGI,CAKI-1 renal,> 89.7 µM
same,TGI,OVCAR-3 ovarian,> 100 µM
same,TGI,IGROV1 ovarian,> 31.5 µM
same,TGI,OVCAR-8 ovarian,> 100 µM
same,TGI,U251 CNS,> 48.6 µM
same,TGI,HOP-92 NSCLC,> 100 µM
same,TGI,SK-OV-3 ovarian,> 100 µM
same,TGI,NCI-H522 lung,> 100 µM
same,TGI,EKVX NSCLC,> 100 µM
same,TGI,T-47D breast,> 29.3 µM
same,TGI,A549 NSCLC,> 100 µM
same,TGI,TK-10 renal,> 30 µM
same,TGI,MCF7 breast,> 100 µM
same,TGI,SK-MEL-28 melanoma,> 100 µM
same,TGI,NCI-H226 lung,> 26.9 µM
same,TGI,UACC-257 melanoma,22.3 µM
same,TGI,ACHN renal,> 28.5 µM
same,TGI,COLO 205 colon,> 29.2 µM
same,TGI,UO-31 renal,> 100 µM
same,TGI,HL-60(TB) leukemia,> 22.6 µM
same,TGI,MOLT-4 leukemia,> 26 µM
same,TGI,CCRF-CEM leukemia,> 26.1 µM
same,TGI,A498 renal,37.5 µM
same,TGI,MDA-MB-231 breast,> 70.9 µM
same,TGI,HS 578T breast,> 100 µM
same,TGI,SR leukemia,2.53 µM
same,TGI,SF-539 CNS,6.63 µM
same,TGI,HT29 colon,> 100 µM
same,TGI,LOX IMVI melanoma,30.9 µM
same,TGI,SN12C renal,7.31 µM
same,TGI,NCI/ADR-RES ovarian,6.06 µM
same,TGI,KM12 colon,> 100 µM
same,TGI,SF-268 CNS,49 µM
same,TGI,SNB-19 CNS,> 100 µM
same,TGI,786-0 renal,6.05 µM
same,TGI,OVCAR-4 ovarian,> 71.2 µM
same,TGI,HCC-2998 colon,> 100 µM
same,TGI,HOP-62 NSCLC,12.5 µM
same,TGI,OVCAR-5 ovarian,> 100 µM
same,TGI,NCI-H23 lung,> 63.8 µM
same,TGI,RPMI-8226 leukemia,9.67 µM
same,TGI,BT-549 breast,47.8 µM
same,TGI,SNB-75 CNS,11.2 µM
same,TGI,MDA-N,> 100 µM
same,TGI,DU-145 prostate,> 100 µM
same,TGI,NCI-H460 lung,> 20.2 µM
same,TGI,HCT-15 colon,> 25.9 µM
same,TGI,M14 melanoma,4.27 µM
same,TGI,SW-620 colon,> 100 µM
same,TGI,SK-MEL-2 melanoma,> 100 µM
same,TGI,SF-295 CNS,> 100 µM
same,TGI,HCT-116 colon,31.4 µM
same,TGI,MDA-MB-435,> 100 µM
COC(=O)NC(Nc1ccc(Cl)cc1Cl)(C(F)(F)F)C(F)(F)F,TGI,UACC-62 melanoma,> 100 µM
same,TGI,MALME-3M melanoma,> 100 µM
same,TGI,PC-3 prostate,> 100 µM
same,TGI,K-562 leukemia,> 100 µM
same,TGI,RXF 393 renal,> 100 µM
same,TGI,CAKI-1 renal,> 100 µM
same,TGI,OVCAR-3 ovarian,> 100 µM
same,TGI,IGROV1 ovarian,> 100 µM
same,TGI,OVCAR-8 ovarian,> 100 µM
same,TGI,U251 CNS,> 100 µM
same,TGI,HOP-92 NSCLC,> 100 µM
same,TGI,SK-OV-3 ovarian,> 100 µM
same,TGI,NCI-H522 lung,> 100 µM
same,TGI,EKVX NSCLC,> 100 µM
same,TGI,T-47D breast,> 100 µM
same,TGI,A549 NSCLC,> 100 µM
same,TGI,TK-10 renal,> 100 µM
same,TGI,MCF7 breast,> 100 µM
same,TGI,SK-MEL-28 melanoma,> 100 µM
same,TGI,NCI-H226 lung,> 100 µM
same,TGI,UACC-257 melanoma,> 100 µM
same,TGI,ACHN renal,> 100 µM
same,TGI,COLO 205 colon,> 100 µM
same,TGI,UO-31 renal,94.7 µM
same,TGI,HL-60(TB) leukemia,> 100 µM
same,TGI,MOLT-4 leukemia,> 100 µM
same,TGI,CCRF-CEM leukemia,> 100 µM
same,TGI,A498 renal,> 100 µM
same,TGI,MDA-MB-231 breast,> 100 µM
same,TGI,HS 578T breast,> 100 µM
same,TGI,SR leukemia,> 100 µM
same,TGI,SF-539 CNS,> 100 µM
same,TGI,HT29 colon,> 100 µM
same,TGI,LOX IMVI melanoma,> 100 µM
same,TGI,SN12C renal,> 100 µM
same,TGI,NCI/ADR-RES ovarian,> 100 µM
same,TGI,KM12 colon,> 100 µM
same,TGI,SF-268 CNS,> 100 µM
same,TGI,SNB-19 CNS,> 100 µM
same,TGI,786-0 renal,> 100 µM
same,TGI,HCC-2998 colon,> 100 µM
same,TGI,HOP-62 NSCLC,> 100 µM
same,TGI,OVCAR-5 ovarian,> 100 µM
same,TGI,NCI-H23 lung,> 100 µM
same,TGI,SK-MEL-5 melanoma,> 100 µM
same,TGI,RPMI-8226 leukemia,> 100 µM
same,TGI,BT-549 breast,> 100 µM
same,TGI,SNB-75 CNS,> 100 µM
same,TGI,MDA-N,> 100 µM
same,TGI,DU-145 prostate,> 100 µM
same,TGI,NCI-H460 lung,> 100 µM
same,TGI,HCT-15 colon,> 100 µM
same,TGI,M14 melanoma,> 100 µM
same,TGI,SW-620 colon,> 100 µM
same,TGI,SK-MEL-2 melanoma,> 100 µM
same,TGI,SF-295 CNS,> 100 µM
same,TGI,HCT-116 colon,> 100 µM
same,TGI,MDA-MB-435,> 100 µM
